Assay results from patent publication US7928230B2, “Method for modulating GPR119 G protein-coupled receptor and selected compounds” (Bristol-Myers Squibb Company, priority 2007, dated 2011).
Structures can show the parent of a compound that is named as a salt.

Target: T1, human GPR119 (Homo sapiens, UniProt Q8TDV5)
T1 construct: expressed in transfected cells; host or cells: Flp-In-T-REx 293 cells, tetracycline-induced
T1 sequence (Q8TDV5 1-335): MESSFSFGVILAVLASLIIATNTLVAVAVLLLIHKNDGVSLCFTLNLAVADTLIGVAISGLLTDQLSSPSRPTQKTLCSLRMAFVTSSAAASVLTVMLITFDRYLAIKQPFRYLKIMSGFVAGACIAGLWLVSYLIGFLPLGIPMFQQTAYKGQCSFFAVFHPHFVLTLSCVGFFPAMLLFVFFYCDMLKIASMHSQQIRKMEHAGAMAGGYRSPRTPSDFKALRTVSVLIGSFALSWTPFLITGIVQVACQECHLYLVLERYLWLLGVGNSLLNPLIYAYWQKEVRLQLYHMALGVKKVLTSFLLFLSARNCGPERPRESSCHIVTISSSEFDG
Test: Human Tet-inducible cAMP assay
Assay type: cell-based
Conditions: Flp-In-T-REx 293 tetracycline inducible cells expressing GPR119; Hit Hunter cAMP kit; 1 hour at 37° C.; read-out: hGPR119 EC50
Protocol: The in vitro modulation of recombinant human GPR119 was determined as follows.
Human Tet-inducible cAMP Assay
Cell lines expressing GPR119 are generated using the Flp-In-T-REx 293 tetracycline inducible gene expression system are cultured in culture medium comprising the following components: DMFM#11965, 10% FBS, 2 mM L-glutamine, 200 ug/ml Hygromycin B, and 15 ug/ml blasticidin.
For cAMP assays, cells are plated on 96 well plates (e.g., BD Falcon: REF 353948, black side, clear bottom, TC surface) at a density of about 4.5×10^4 cells per well in growth medium containing 1.0 ug/ml tetracycline (1.0 mg/ml stock). The cells are then incubated for 48 hours at 37° C.
Following the incubation, the growth medium is removed from the wells and the wells rinsed (once) with the assay buffer included in the Hit Hunter cAMP kit (100 μl/well). Following the wash, 20 μl of assay buffer is added to each well, followed by addition of 10 μl of a 3× concentration compound working solution. The solution is then mixed. The final concentration range of compound is from about 10^−5M to about 10^−11M. The reagents are then incubated at 37° C. at 5% CO2 for 1 hour.
The manufacturer's protocol may be followed for cAMP determination. The Hit Hunter cAMP kit protocol is outlined for the HIT-T15 cAMP assays described above.
Compounds of the present invention were tested in the Human Tet-inducible cAMP assay described immediately above and the results shown in Table 4 below were obtained.

Row | EC50 [µM] | SMILES
1 | 0.204 | CCCc1cnc(N2CCC(Oc3ccn(-c4ccc(-c5ncco5)cc4)c(=O)c3)CC2)nc1 [Example 3, 1-(4-(oxazol-2-yl)phenyl)-4-(1-(5-propylpyrimidin-2-yl)piperidin-4-yloxy)pyridin-2(1H)-one]
2 | 0.094 | CCCc1cnc(N2CCC(Oc3ccn(-c4ccc(-n5ccnc5)cc4)c(=O)c3)CC2)nc1 [Example 2, 1-(4-(1H-imidazol-1-yl)phenyl)-4-(1-(5-propylpyrimidin-2-yl)piperidin-4-yloxy)pyridin-2(1H)-one, hydrochloride salt]
3 | 0.087 | CCCc1cnc(N2CCC(Oc3ccn(-c4ccc(-n5cncn5)cc4)c(=O)c3)CC2)nc1 [Example 1, 1-(4-(1H-1,2,4-triazol-1-yl)phenyl)-4-(1-(5-propylpyrimidin-2-yl)piperidin-4-yloxy)pyridin-2(1H)-one, hydrochloride salt]
4 | 5.19 | CC(C)OC(=O)N1CCC(Oc2ccn(-c3ccc(-n4cncn4)cc3)c(=O)c2)CC1 [Example 4, isopropyl 4-(1-(4-(1H-1,2,4-triazol-1-yl)phenyl)-2-oxo-1,2-dihydropyridin-4-yloxy)piperidine-1-carboxylate]
